Test results: patent US8309685B2 (Celgene Avilomics Research, Inc., priority 2007, dated 2012)
Read-outs that look alike come from different tables or passages of the source.

Tests used:
[1] = target: T1, wild type HCV NS3/4A 1b protease enzyme (Hepatitis C virus genotype 1b, UniProt P26663); assay: HCV Protease FRET Assay (IC50_APP), wild type; format: biochemical; conditions: read-out: IC50_APP, WT; apparent IC50, wild type NS3/4A 1b
T1 construct: 10× stocks of NS3/4A protease enzyme from Bioenza (Mountain View, Calif.); purchased Bioenza (Mountain View, Calif.)

[2] = system: HCV RNA replicon in cell line ET (luc-ubi-neo/ET), human Huh7 hepatoma; assay: Method A: HCV RNA replicon antiviral assay (luciferase, ET cell line); format: cell-based, Hepatitis C virus; conditions: Hepatitis C virus, Huh-7
In short: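 ET replicon cells (Huh7 carrying luciferase-reporter HCV replicon) plated at 5×10^3 cells/well and exposed 72 hr to six 3-fold drug concentrations in DMEM/5% FBS. Replicon luciferase gave EC50/EC90; CytoTox-1 cell counts gave IC50 (viability); […]. Interferon alpha-2b served as positive control.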

[3] = target: T1, wild type HCV NS3/4A 1b protease enzyme; assay: biochemical; format: biochemical; conditions: read-out: Inhibition, WT; WT enzyme, FRET assay
[4] = target: T2, D168A mutant of the HCV NS3/4A 1b protease enzyme (Hepatitis C virus genotype 1b, UniProt P26663, D1194A); assay: HCV Protease FRET Assay (IC50_APP), D168A mutant; format: biochemical
T2 construct: 10× stocks of NS3/4A protease enzyme from Bioenza (Mountain View, Calif.); purchased Bioenza (Mountain View, Calif.)

[5] = target: T3, A156T mutant of the HCV NS3/4A 1b protease enzyme (Hepatitis C virus genotype 1b, UniProt P26663, A1182T); assay: HCV Protease FRET Assay (IC50), A156T mutant; format: biochemical; conditions: read-out: Inhibition, HCV A156T; A156T enzyme, FRET assay
T3 construct: 10× stocks of NS3/4A protease enzyme from Bioenza (Mountain View, Calif.); purchased Bioenza (Mountain View, Calif.)
Protocol: HCV Protease FRET Assay for Wild Type and Mutated NS3/4A 1b Enzymes (IC50)
The protocol is a modified FRET-based assay (v—02) from In Vitro Resistance Studies of HCV Serine Protease Inhibitors, 2004, JBC, vol. 279, No. 17, pp 17508-17514.
10× stocks of NS3/4A protease enzyme from Bioenza (Mountain View, Calif.) and 1.13× 5-FAM/QXL™ 520 FRET peptide substrate from Anaspec (San Jose, Calif.) were prepared in 50 mM HEPES, pH 7.8, 100 mM NaCl, 5 mM DTT and 20% glycerol. 5 μL of each enzyme were pre-incubated in a Corning (#3573) 384-well, black, non-treated microtiter plate (Corning, N.Y.) for 30 min at 25° C. with a 0.5 μL volume of 50% DMSO and serially diluted compounds prepared in 50% DMSO. Protease reactions were started with the addition of 45 μL of the FRET substrate and monitored for 120 minutes at λex487/λem514 through Quad^4 monochromoters in a Synergy^4 plate reader from BioTek (Winooski, Vt.). At the conclusion of each assay, progress curves from each well were examined for linear reaction kinetics and fit statistics (R^2, absolute sum of squares). Initial velocity (0 minutes to 30+ minutes) from each reaction was determined from the slope of a plot of relative fluorescence units vs time (minutes) and then plotted against inhibitor concentration to estimate IC50 from log[Inhibitor] vs Response, Variable Slope model in GraphPad Prism from GraphPad Software (San Diego, Calif.).
The compound numbers correspond to the compound numbers in Table 3. […] ;

[6] = target: T3, A156T mutant of the HCV NS3/4A 1b protease enzyme; assay: HCV Protease FRET Assay (IC50_APP), A156T mutant; format: biochemical
[7] = system: cell line ET (luc-ubi-neo/ET), human Huh7 hepatoma cell line; assay: Method A: cytotoxicity in ET replicon cells (CytoTox-1); format: cell-based; conditions: concentration decreasing cell viability by 50%, 72 hr
Protocol: The compounds were assayed to evaluate the antiviral activity and cytotoxicity of compounds in vitro using HCV RNA replicons. This assay used the cell line ET (luc-ubi-neo/ET), which is a human Huh7 hepatoma cell line that contains an HCV RNA replicon with a stable luciferase (Luc) reporter and three cell culture-adaptive mutations. […]
The ET cell line was grown in Dulbecco's modified essential media (DMEM), 10% fetal bovine serum (FBS), 1% penicillin-streptomycin (pen-strep), 1% glutamine, 250 μg/ml G418 in a 5% CO2 incubator at 37° C. All cell culture reagents were obtained from Mediatech (Manassas, Va.). Cells were trypsinized (1% trypsin:EDTA) and plated out at 5×10^3 cells/well in white 96-well assay plates (Costar) dedicated to cell number (cytotoxicity) or antiviral activity assessments. Drugs were added at six 3-fold concentrations each and the assay was run in DMEM, 5% FBS, 1% pen-strep, 1% glutamine. Human interferon alpha-2b (PBL Biolabs, New Brunswick, N.J.) was included in each run as a positive control compound. Cells were processed 72 hr post drug addition when the cells are still subconfluent. Antiviral activity was measured by analyzing replicon-derived luciferase activity using the Steady-Glo Luciferase Assay System (Promega, Madison, Wis.) according to manufacturer's instruction. The number of cells in each well was determined by CytoTox-1 reagent (Promega). […].

[8] = target: T2, D168A mutant of the HCV NS3/4A 1b protease enzyme; assay: HCV Protease FRET Assay (IC50), D168A mutant; format: biochemical; conditions: read-out: Inhibition, HCV D168A; D168A enzyme, FRET assay
[9] = Replicon, assay of Example 22, 72 hr, read-out: Inhibition, Replicon
[10] = assay described in Example 22, read-out: Replicon (IC50)
[11] = apparent IC50, D168A mutant; read-out: IC50_APP, HCV D168A
[12] = apparent IC50, A156T mutant; read-out: IC50_APP, HCV A156T
[13] = read-out: IC50_APP, HCV D168A; apparent IC50, D168A mutant
[14] = read-out: IC50_APP, HCV A156T; apparent IC50, A156T mutant

| SMILES | IC50 [1] | IC90 ([2]; assay described in Example 22) | IC50 [2, 9] | IC50 [2, 10] | IC50 [3] | IC50 [4, 11] | IC50 [5] | IC50 [6, 12] | Inhibition, Cytotoxicity [7] | IC50 [8] | IC50 [4, 13] | IC50 [6, 14] |
| --- | --- | --- | --- | --- | --- | --- | --- | --- | --- | --- | --- | --- |
| C=CC(=O)NC[C@H](NC(=O)OC(C)(C)C)C(=O)N1C[C@H](Oc2cc(-c3ccccc3)nc3cc(OC)ccc23)C[C@H]1C(=O)N[C@]1(C(=O)NS(=O)(=O)C2CC2)C[C@H]1C=C [Compound I-35, tert-butyl-(S)-3-acrylamido-1-((2S,4R)-2-((1R,2S)-1-(cyclopropylsulfonylcarbamoyl)-2-vinylcyclopropylcarbamoyl)-4-(7-methoxy-2-phenylquinolin-4-yloxy)pyrrolidin-1-yl)-1-oxopropan-2-ylcarbamate] | < 10 nM | 100 to 1000 nM | < 10 nM | 10 to 100 nM | < 10 nM | 100 to 1000 nM | < 10 nM | 100 to 1000 nM | C (IC50>100 nM and ≦1000 nM) | < 10 nM | – | – |
| C=C[C@@H]1C[C@]1(NC(=O)[C@@H]1C[C@@H](Oc2cc(-c3ccccc3)nc3cc(OC)ccc23)CN1C(=O)[C@H](CNC(=O)C(C)Br)NC(=O)OC(C)(C)C)C(=O)NS(=O)(=O)c1ccccc1 (stereo partly drawn) [Compound I-22, tert-butyl(S)-3-(2-bromopropanamido)-1-((2S,4R)-4-(7-methoxy-2-phenylquinolin-4-yloxy)-2-((1R,2S)-1-(phenylsulfonylcarbamoyl)-2-vinylcyclopropylcarbamoyl)pyrrolidin-1-yl)-1-oxopropan-2-ylcarbamate] | < 10 nM | > 10000 nM | 100 to 1000 nM | 100 to 1000 nM | < 10 nM | 1000 to 10000 nM | 10 to 100 nM | 1000 to 10000 nM | D (IC50>1000 nM and <10,000 nM) | 10 to 100 nM | – | – |
| C=C[C@@H]1C[C@]1(NC(=O)[C@@H]1C[C@@H](Oc2cc(-c3ccccc3)nc3cc(OC)ccc23)CN1C(=O)[C@H](CCNC(=O)CCl)NC(=O)OC(C)(C)C)C(=O)NS(=O)(=O)c1ccccc1 [Compound I-4, (2S)-2-[[(1,1-dimethylethoxy)carbonyl]amino]-4-(chloroacetyl)amino-butanoyl-(4R)-4-[(7-methoxy-2-phenyl-4-quinolinyl)oxy]-L-prolyl-1-amino-2-ethenyl-N-(phenylsulfonyl)-(1R,2S)-cyclopropanecarboxamide] | < 10 nM | 100 to 1000 nM | 10 to 100 nM | 10 to 100 nM | < 10 nM | – | 10 to 100 nM | – | D (IC50>1000 nM and <10,000 nM) | 10 to 100 nM | 100 to 1000 nM | 100 to 1000 nM |
| C=C[C@@H]1C[C@]1(NC(=O)[C@@H]1C[C@@H](Oc2cc(-c3ccccc3)nc3cc(OC)ccc23)CN1C(=O)[C@H](CCN(C)C(=O)CCl)NC(=O)OC(C)(C)C)C(=O)NS(=O)(=O)c1ccccc1 [Compound I-9, (2S)-2-[[(1,1-dimethylethoxy)carbonyl]amino]-4-(chloroacetyl)methylamino-butanoyl-(4R)-4-[(7-methoxy-2-phenyl-4-quinolinyl)oxy]-L-prolyl-1-amino-2-ethenyl-N-(phenylsulfonyl)-(1R,2S)-cyclopropanecarboxamide] | < 10 nM | > 10000 nM | 10 to 100 nM | 10 to 100 nM | < 10 nM | – | < 10 nM | – | C (IC50>100 nM and ≦1000 nM) | < 10 nM | 100 to 1000 nM | 10 to 100 nM |
| C=C[C@@H]1C[C@]1(NC(=O)[C@@H]1C[C@@H](Oc2cc(-c3ccccc3)nc3cc(OC)ccc23)CN1C(=O)[C@H](CN(C)C(=O)[C@H](Cl)c1ccccc1)NC(=O)OC(C)(C)C)C(=O)NS(=O)(=O)c1ccccc1 [Compound I-33, tert-butyl-(2S)-3-(2-chloro-N-methyl-2-phenylacetamido)-1-((2S,4R)-4-(7-methoxy-2-phenylquinolin-4-yloxy)-2-((1R,2S)-1-(phenylsulfonylcarbamoyl)-2-vinylcyclopropylcarbamoyl)pyrrolidin-1-yl)-1-oxopropan-2-ylcarbamate] | < 10 nM | 10 to 100 nM | < 10 nM | < 10 nM | < 10 nM | 1000 to 10000 nM | 100 to 1000 nM | 1000 to 10000 nM | E (IC50≧10,000 nM) | 100 to 1000 nM | – | – |
| C=CC(=O)N(C)CC[C@H](NC(=O)OC(C)(C)C)C(=O)N1C[C@H](Oc2cc(-c3ccccc3)nc3cc(OC)ccc23)C[C@H]1C(=O)N[C@]1(C(=O)NS(=O)(=O)c2ccccc2)C[C@H]1C=C [Compound I-12, (2S)-2-[[(1,1-dimethylethoxy)carbonyl]amino]-4-(2-propenoyl)methylamino-butanoyl-(4R)-4-[(7-methoxy-2-phenyl-4-quinolinyl)oxy]-L-prolyl-1-amino-2-ethenyl-N-(phenylsulfonyl)-(1R,2S)-cyclopropanecarboxamide] | < 10 nM | 100 to 1000 nM | 10 to 100 nM | 10 to 100 nM | < 10 nM | 1000 to 10000 nM | 10 to 100 nM | 1000 to 10000 nM | D (IC50>1000 nM and <10,000 nM) | 10 to 100 nM | – | – |
| C=C[C@@H]1C[C@]1(NC(=O)[C@@H]1C[C@@H](Oc2cc(-c3ccccc3)nc3cc(OC)ccc23)CN1C(=O)[C@H](CNC(=O)C(Cl)c1ccccc1)NC(=O)OC(C)(C)C)C(=O)NS(=O)(=O)c1ccccc1 (stereo partly drawn) [Compound I-23, tert-butyl(S)-3-(2-chloro-2-phenylacetamido)-1-((2S,4R)-4-(7-methoxy-2-phenylquinolin-4-yloxy)-2-((1R,2S)-1-(phenylsulfonylcarbamoyl)-2-vinylcyclopropylcarbamoyl)pyrrolidin-1-yl)-1-oxopropan-2-ylcarbamate] | – | – | 100 to 1000 nM | – | < 10 nM | – | 1000 to 10000 nM | – | D (IC50>1000 nM and <10,000 nM) | 100 to 1000 nM | – | – |
| C=CC(=O)NCC[C@H](NC(=O)OC(C)(C)C)C(=O)N1C[C@H](Oc2cc(-c3ccccc3)nc3cc(OC)ccc23)C[C@H]1C(=O)N[C@]1(C(=O)NS(=O)(=O)c2ccccc2)C[C@H]1C=C [Compound I-8, (2S)-2-[[(1,1-dimethylethoxy)carbonyl]amino]-4-(2-propenoyl)amino-butanoyl-(4R)-4-[(7-methoxy-2-phenyl-4-quinolinyl)oxy]-L-prolyl-1-amino-2-ethenyl-N-(phenylsulfonyl)-(1R,2S)-cyclopropanecarboxamide] | – | – | 100 to 1000 nM | – | < 10 nM | – | 10 to 100 nM | – | D (IC50>1000 nM and <10,000 nM) | 10 to 100 nM | – | – |
